According to PubChem BioAssay (NCI):
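Growth conditions: 96-well plates. Treatment: test compound, 48 hours, 5 concentrations. Analysis: linear interpolation between bracketing concentrations; unreached endpoints set to highest concentration. Abbreviation: GI50, concentration required for 50% inhibition of growth. At the TGI there is no net growth.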

Experiments:
Test in all cases: inhibition of tumour cell growth, NCI panel, 48 h
[1] = tested on: 786-0 renal
[2] = tested on: A498 renal
[3] = tested on: A549 NSCLC
[4] = tested on: ACHN renal
[5] = tested on: BT-549 breast
[6] = tested on: CAKI-1 renal
[7] = tested on: CCRF-CEM leukemia
[8] = tested on: COLO 205 colon
[9] = tested on: DU-145 prostate
[10] = tested on: HCC-2998 colon
[11] = tested on: HCT-116 colon
[12] = tested on: HCT-15 colon
[13] = tested on: HL-60(TB) leukemia
[14] = tested on: HOP-62 NSCLC
[15] = tested on: HOP-92 NSCLC
[16] = tested on: HS 578T breast
[17] = tested on: HT29 colon
[18] = tested on: IGROV1 ovarian
[19] = tested on: K-562 leukemia
[20] = tested on: KM12 colon
[21] = tested on: LOX IMVI melanoma
[22] = tested on: M14 melanoma
[23] = tested on: MALME-3M melanoma
[24] = tested on: MCF7 breast
[25] = tested on: MDA-MB-231 breast
[26] = tested on: MDA-MB-435
[27] = tested on: MOLT-4 leukemia
[28] = tested on: NCI-H226 lung
[29] = tested on: NCI-H23 lung
[30] = tested on: NCI-H460 lung
[31] = tested on: NCI-H522 lung
[32] = tested on: NCI/ADR-RES ovarian
[33] = tested on: OVCAR-3 ovarian
[34] = tested on: OVCAR-4 ovarian
[35] = tested on: OVCAR-5 ovarian
[36] = tested on: OVCAR-8 ovarian
[37] = tested on: PC-3 prostate
[38] = tested on: RPMI-8226 leukemia
[39] = tested on: RXF 393 renal
[40] = tested on: SF-268 CNS
[41] = tested on: SF-295 CNS
[42] = tested on: SF-539 CNS
[43] = tested on: SK-MEL-2 melanoma
[44] = tested on: SK-MEL-28 melanoma
[45] = tested on: SK-MEL-5 melanoma
[46] = tested on: SK-OV-3 ovarian
[47] = tested on: SN12C renal
[48] = tested on: SNB-19 CNS
[49] = tested on: SNB-75 CNS
[50] = tested on: SR leukemia
[51] = tested on: SW-620 colon
[52] = tested on: T-47D breast
[53] = tested on: TK-10 renal
[54] = tested on: U251 CNS
[55] = tested on: UACC-257 melanoma
[56] = tested on: UACC-62 melanoma
[57] = tested on: UO-31 renal

Which GI50 [1] does the source give for `CS(=O)(=O)Nc1ccc(Nc2c3ccccc3nc3cc([N+](=O)[O-])ccc23)cc1` here?
The GI50 was 1390 nM.

What about the TGI [1] of the same compound?
The TGI was 10600 nM.

And the GI50 [2]?
The GI50 was 1280 nM.

And the TGI [2]?
The TGI was 12500 nM.

What about the GI50 [3] of the same compound?
The GI50 was 317 nM.

And the TGI [3]?
The TGI was 12000 nM.

And the GI50 [4]?
Its GI50 is 1420 nM.

What about the TGI [4] of the same compound?
The TGI was 6740 nM.

What about the GI50 [5] of the same compound?
The GI50 was 2290 nM.

And the TGI [5]?
The TGI was 9320 nM.

What about the GI50 [6] of the same compound?
The GI50 was 2010 nM.

What about the TGI [6] of the same compound?
Its TGI is 7430 nM.

And the GI50 [7]?
Its GI50 is 352 nM.

What about the TGI [7] of the same compound?
Its TGI is 2790 nM.

What about the GI50 [8] of the same compound?
Its GI50 is 1430 nM.

And the TGI [8]?
The TGI was 6060 nM.

What about the GI50 [9] of the same compound?
Its GI50 is 296 nM.

What about the TGI [9] of the same compound?
The TGI was 6500 nM.

What about the GI50 [10] of the same compound?
Its GI50 is 1620 nM.

What about the TGI [10] of the same compound?
Its TGI is 4240 nM.

What about the GI50 [11] of the same compound?
The GI50 was 1100 nM.

And the TGI [11]?
The TGI was 6160 nM.

And the GI50 [12]?
Its GI50 is 1380 nM.

What about the TGI [12] of the same compound?
Its TGI is 4010 nM.

And the GI50 [13]?
The GI50 was 1690 nM.

And the TGI [13]?
The TGI was 5880 nM.

What about the GI50 [14] of the same compound?
Its GI50 is 399 nM.

And the TGI [14]?
Its TGI is 3790 nM.

What about the GI50 [15] of the same compound?
The GI50 was 590 nM.

And the TGI [15]?
Its TGI is 3740 nM.

And the GI50 [16]?
Its GI50 is 2420 nM.

What about the TGI [16] of the same compound?
The TGI was 13400 nM.

And the GI50 [17]?
The GI50 was 2140 nM.

What about the TGI [17] of the same compound?
The TGI was 6130 nM.

What about the GI50 [18] of the same compound?
Its GI50 is 1630 nM.

And the TGI [18]?
Its TGI is 5170 nM.

And the GI50 [19]?
The GI50 was 1310 nM.

What about the TGI [19] of the same compound?
The TGI was 6960 nM.

What about the GI50 [20] of the same compound?
Its GI50 is 854 nM.

What about the TGI [20] of the same compound?
Its TGI is 3760 nM.

What about the GI50 [21] of the same compound?
The GI50 was 922 nM.

What about the TGI [21] of the same compound?
The TGI was 2780 nM.

And the GI50 [22]?
The GI50 was 1420 nM.

And the TGI [22]?
The TGI was 5810 nM.

What about the GI50 [23] of the same compound?
The GI50 was 1440 nM.

And the TGI [23]?
Its TGI is 4080 nM.

And the GI50 [24]?
Its GI50 is 51.1 nM.

What about the TGI [24] of the same compound?
The TGI was 2720 nM.

What about the GI50 [25] of the same compound?
The GI50 was 2100 nM.

And the TGI [25]?
The TGI was 6100 nM.

What about the GI50 [26] of the same compound?
Its GI50 is 3320 nM.

And the TGI [26]?
The TGI was 9060 nM.

What about the GI50 [27] of the same compound?
Its GI50 is 235 nM.

And the TGI [27]?
The TGI was 1190 nM.

What about the GI50 [28] of the same compound?
The GI50 was 1260 nM.

What about the TGI [28] of the same compound?
Its TGI is 6950 nM.

And the GI50 [29]?
The GI50 was 1690 nM.

And the TGI [29]?
The TGI was 5470 nM.

What about the GI50 [30] of the same compound?
The GI50 was 41 nM.

And the TGI [30]?
The TGI was 2750 nM.

What about the GI50 [31] of the same compound?
Its GI50 is 1270 nM.

And the TGI [31]?
The TGI was 2800 nM.

And the GI50 [32]?
Its GI50 is 10000 nM.

And the TGI [32]?
The TGI was 26500 nM.

And the GI50 [33]?
The GI50 was 2050 nM.

What about the TGI [33] of the same compound?
The TGI was 5870 nM.

And the GI50 [34]?
Its GI50 is 2900 nM.

What about the TGI [34] of the same compound?
The TGI was 10400 nM.

What about the GI50 [35] of the same compound?
Its GI50 is 7940 nM.

And the TGI [35]?
Its TGI is 23100 nM.

What about the GI50 [36] of the same compound?
The GI50 was 1950 nM.

And the TGI [36]?
The TGI was 9530 nM.

What about the GI50 [37] of the same compound?
Its GI50 is 1590 nM.

And the TGI [37]?
Its TGI is 11800 nM.

What about the GI50 [38] of the same compound?
Its GI50 is 737 nM.

And the TGI [38]?
The TGI was 4310 nM.

And the GI50 [39]?
The GI50 was 1890 nM.

What about the TGI [39] of the same compound?
Its TGI is 4860 nM.

And the GI50 [40]?
Its GI50 is 615 nM.

And the TGI [40]?
The TGI was 7030 nM.

And the GI50 [41]?
Its GI50 is 1420 nM.

And the TGI [41]?
The TGI was 7770 nM.

What about the GI50 [42] of the same compound?
Its GI50 is 2230 nM.

And the TGI [42]?
The TGI was 13000 nM.

And the GI50 [43]?
The GI50 was 3460 nM.

What about the TGI [43] of the same compound?
The TGI was 8850 nM.

And the GI50 [44]?
The GI50 was 2450 nM.

What about the TGI [44] of the same compound?
The TGI was 7760 nM.

And the GI50 [45]?
Its GI50 is 1100 nM.

What about the TGI [45] of the same compound?
Its TGI is 4370 nM.

And the GI50 [46]?
The GI50 was 3500 nM.

What about the TGI [46] of the same compound?
The TGI was 15100 nM.

And the GI50 [47]?
The GI50 was 807 nM.

And the TGI [47]?
Its TGI is 8430 nM.

And the GI50 [48]?
The GI50 was 1610 nM.

What about the TGI [48] of the same compound?
Its TGI is 14900 nM.

What about the GI50 [49] of the same compound?
Its GI50 is 1720 nM.

What about the TGI [49] of the same compound?
The TGI was 11800 nM.

What about the GI50 [50] of the same compound?
The GI50 was 83.7 nM.

What about the TGI [50] of the same compound?
Its TGI is 3160 nM.

What about the GI50 [51] of the same compound?
The GI50 was 1090 nM.

What about the TGI [51] of the same compound?
The TGI was 6000 nM.

What about the GI50 [52] of the same compound?
The GI50 was 107 nM.

And the TGI [52]?
The TGI was 2230 nM.

And the GI50 [53]?
The GI50 was 3380 nM.

What about the TGI [53] of the same compound?
Its TGI is 11900 nM.

What about the GI50 [54] of the same compound?
The GI50 was 911 nM.

What about the TGI [54] of the same compound?
The TGI was 11300 nM.

And the GI50 [55]?
The GI50 was 1820 nM.

And the TGI [55]?
Its TGI is 6440 nM.

And the GI50 [56]?
Its GI50 is 1320 nM.

What about the TGI [56] of the same compound?
The TGI was 6310 nM.

What about the GI50 [57] of the same compound?
The GI50 was 2390 nM.

What about the TGI [57] of the same compound?
The TGI was 13600 nM.
